Measurements: ChEMBL document CHEMBL1201862, “PubChem BioAssay data set” (2004)
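Values below derive from 48-hour exposures of cells grown in 96-well plates, with endpoints linearly interpolated between the two concentrations bracketing the appropriate inhibition level. GI50 = concentration required for 50% inhibition of growth.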 Activity calls are given as the source filed them. Cut-off read from the data, not from the text of the source: active = GI50 up to about 1.1 µM and inactive = higher.

Tests used:
Assay in all cases: NCI anticancer screen, dose series, 48 h
SK-MEL-28 = test system: SK-MEL-28
UACC-62 = test system: UACC-62
SK-MEL-2 = test system: SK-MEL-2
SF-295 = test system: SF-295
MOLT-4 = test system: MOLT-4
SK-MEL-5 = test system: SK-MEL-5
ACHN = test system: ACHN
SF-539 = test system: SF-539
KM12 = test system: KM12
HOP-18 = test system: HOP-18
CAKI-1 = test system: CAKI-1
SR = test system: SR
HT-29 = test system: HT-29
NCI-H226 = test system: NCI-H226
LOX IMVI = test system: LOX IMVI
RXF 393 = test system: RXF 393
SF-268 = test system: SF-268
HCT-116 = test system: HCT-116
OVCAR-3 = test system: OVCAR-3
SNB-19 = test system: SNB-19
HL-60 = test system: HL-60
UACC-257 = test system: UACC-257
Malme-3M = test system: Malme-3M
M19-MEL = test system: M19-MEL
XF498 = test system: XF498
TK-10 = test system: TK-10
786-0 = test system: 786-0
NCI-H522 = test system: NCI-H522
K562 = test system: K562
HCT-15 = test system: HCT-15
U-251 = test system: U-251
SW-620 = test system: SW-620
OVCAR-8 = test system: OVCAR-8
RPMI-8226 = test system: RPMI-8226
SNB-75 = test system: SNB-75
A549 = test system: A549
SNB-78 = test system: SNB-78
NCI-H460 = test system: NCI-H460
HOP-92 = test system: HOP-92
UO-31 = test system: UO-31
OVCAR-4 = test system: OVCAR-4
OVCAR-5 = test system: OVCAR-5
HOP-62 = test system: HOP-62
SN12C = test system: SN12C
EKVX = test system: EKVX
CCRF-CEM = test system: CCRF-CEM
A498 = test system: A498
DLD-1 = test system: DLD-1
HCC 2998 = test system: HCC 2998
SK-OV-3 = test system: SK-OV-3
IGROV-1 = test system: IGROV-1
M14 = test system: M14
DMS-273 = test system: DMS-273
KM-20L2 = test system: KM-20L2
COLO 205 = test system: COLO 205
NCI-H23 = test system: NCI-H23
LXFL 529 = test system: LXFL 529
MCF7 = test system: MCF7
NCI/ADR-RES = test system: NCI/ADR-RES
DMS-114 = test system: DMS-114

Compound: Cc1cc(=O)cc2sc3cc(Cl)ccc3nc1-2
- GI50 (SK-MEL-28): 17.8 µM (inactive)
- GI50 (UACC-62): 6.84 µM (inactive)
- GI50 (SK-MEL-2): 7.01 µM (inactive)
- GI50 (SF-295): 6.5 µM (inactive)
- GI50 (MOLT-4): 12.6 µM (inactive)
- GI50 (SK-MEL-5): 3.65 µM (inactive)
- GI50 (ACHN): 6.04 µM (inactive)
- GI50 (SF-539): 7.66 µM (inactive)
- GI50 (KM12): 4.5 µM (inactive)
- GI50 (HOP-18): 48.1 µM (inactive)
- GI50 (CAKI-1): 19.7 µM (inactive)
- GI50 (SR): 3.07 µM (inactive)
- GI50 (HT-29): 20.3 µM (inactive)
- GI50 (NCI-H226): 25.4 µM (inactive)
- GI50 (LOX IMVI): 11.9 µM (inactive)
- GI50 (RXF 393): 4.76 µM (inactive)
- GI50 (SF-268): 6.84 µM (inactive)
- GI50 (HCT-116): 9.42 µM (inactive)
- GI50 (OVCAR-3): 8.89 µM (inactive)
- GI50 (SNB-19): 5.93 µM (inactive)
- GI50 (HL-60): 2.66 µM (inactive)
- GI50 (UACC-257): 16.9 µM (inactive)
- GI50 (Malme-3M): 11.5 µM (inactive)
- GI50 (M19-MEL): 16.3 µM (inactive)
- GI50 (XF498): 4.28 µM (inactive)
- GI50 (TK-10): 25.4 µM (inactive)
- GI50 (786-0): 12 µM (inactive)
- GI50 (NCI-H522): 2.54 µM (inactive)
- GI50 (K562): 4.09 µM (inactive)
- GI50 (HCT-15): 3.95 µM
- GI50 (U-251): 6.53 µM (inactive)
- GI50 (SW-620): 6.9 µM (inactive)
- GI50 (OVCAR-8): 8.99 µM (inactive)
- GI50 (RPMI-8226): 5.87 µM (inactive)
- GI50 (SNB-75): 3.24 µM (inactive)
- GI50 (A549): 4.49 µM (inactive)
- GI50 (SNB-78): 17 µM (inactive)
- GI50 (NCI-H460): 7.55 µM (inactive)
- GI50 (HOP-92): 22.3 µM (inactive)
- GI50 (UO-31): 13.7 µM (inactive)
- GI50 (OVCAR-4): 22.2 µM (inactive)
- GI50 (OVCAR-5): 21.1 µM (inactive)
- GI50 (HOP-62): 15.6 µM (inactive)
- GI50 (SN12C): 7.45 µM (inactive)
- GI50 (EKVX): 4.72 µM (inactive)
- GI50 (CCRF-CEM): 1.39 µM (inactive)
- GI50 (A498): 19.9 µM (inactive)
- GI50 (DLD-1): 6.49 µM (inactive)
- GI50 (HCC 2998): 10.5 µM (inactive)
- GI50 (SK-OV-3): 20.7 µM (inactive)
- GI50 (IGROV-1): 12.1 µM (inactive)
- GI50 (M14): 4.4 µM (inactive)
- GI50 (DMS-273): 6.17 µM (inactive)
- GI50 (KM-20L2): 17.4 µM (inactive)
- GI50 (COLO 205): 22.3 µM (inactive)
- GI50 (NCI-H23): 13.7 µM (inactive)
- GI50 (LXFL 529): 15.2 µM (inactive)

Compound: O=C1CCC23CC(C=CC=C12)n1c(=O)n(-c2ccccc2)c(=O)n13 (centres undefined)
- GI50 (SK-MEL-28): > 69.2 µM (inactive)
- GI50 (UACC-62): > 100 µM (inactive)
- GI50 (SK-MEL-2): > 100 µM (inactive)
- GI50 (SF-295): > 100 µM (inactive)
- GI50 (MOLT-4): 49.7 µM (inactive)
- GI50 (SK-MEL-5): > 87.3 µM (inactive)
- GI50 (SF-539): > 100 µM (inactive)
- GI50 (KM12): > 100 µM (inactive)
- GI50 (HOP-18): > 100 µM (inactive)
- GI50 (CAKI-1): > 50.6 µM (inactive)
- GI50 (HT-29): > 88.9 µM (inactive)
- GI50 (NCI-H226): > 63.4 µM (inactive)
- GI50 (LOX IMVI): > 72.1 µM (inactive)
- GI50 (RXF 393): 99.3 µM (inactive)
- GI50 (SF-268): > 73.6 µM (inactive)
- GI50 (HCT-116): > 71.9 µM (inactive)
- GI50 (OVCAR-3): > 100 µM (inactive)
- GI50 (SNB-19): > 100 µM (inactive)
- GI50 (HL-60): 31 µM (inactive)
- GI50 (UACC-257): > 100 µM (inactive)
- GI50 (Malme-3M): > 100 µM (inactive)
- GI50 (M19-MEL): > 100 µM (inactive)
- GI50 (XF498): > 100 µM (inactive)
- GI50 (MCF7): 10.9 µM (inactive)
- GI50 (NCI-H522): > 100 µM (inactive)
- GI50 (K562): 39.8 µM (inactive)
- GI50 (HCT-15): > 78.7 µM
- GI50 (SW-620): 43.2 µM (inactive)
- GI50 (OVCAR-8): > 100 µM (inactive)
- GI50 (RPMI-8226): > 100 µM (inactive)
- GI50 (NCI/ADR-RES): 38.5 µM (inactive)
- GI50 (SNB-75): > 100 µM (inactive)
- GI50 (A549): > 63.8 µM (inactive)
- GI50 (SNB-78): > 59.2 µM (inactive)
- GI50 (NCI-H460): > 100 µM (inactive)
- GI50 (HOP-92): > 100 µM (inactive)
- GI50 (UO-31): > 64.4 µM (inactive)
- GI50 (OVCAR-4): > 100 µM (inactive)
- GI50 (OVCAR-5): > 100 µM (inactive)
- GI50 (HOP-62): > 100 µM (inactive)
- GI50 (SN12C): > 100 µM (inactive)
- GI50 (EKVX): > 100 µM (inactive)
- GI50 (CCRF-CEM): 42.4 µM (inactive)
- GI50 (A498): > 100 µM (inactive)
- GI50 (DLD-1): 66.2 µM (inactive)
- GI50 (HCC 2998): > 100 µM (inactive)
- GI50 (SK-OV-3): > 100 µM (inactive)
- GI50 (IGROV-1): > 100 µM (inactive)
- GI50 (DMS-273): 71.4 µM (inactive)
- GI50 (DMS-114): 37.3 µM (inactive)
- GI50 (COLO 205): > 100 µM (inactive)
- GI50 (NCI-H23): 99.1 µM (inactive)
